These results are taken from patent US4742057A, “Antiallergic thiazole compounds” (Fujisawa Pharmaceutical Co., Ltd., priority 1985, dated 1988).

In this experiment the test system is anaphylactic asthma in guinea pigs. The experiment in a line: Antagonistic action on anaphylactic asthma in guinea pigs (prophylactic effect, survival after antigen spraying). In kind it is in vivo, guinea pigs (male Hartley-strain). The note with it: Cavia porcellus; oral, 30 min before egg-white albumin aerosol; survival for not less than 2 hours; passively sensitized guinea pigs.
For `CC(=O)Nc1nc(CN2CCC(c3c[nH]c4ccccc34)CC2)cs1` [Compound A, 2-Acetylamino-4-[4-(3-indolyl)piperidinomethyl]thiazole], the ED50 (as a rule, the midpoint of the dose-response relation) was 0.95 mg/kg. As for `CS(=O)(=O)Nc1nc(CCN2CCC(c3c[nH]c4ccccc34)CC2)cs1` [Compound C, 4-[2-[4-(3-Indolyl)piperidino]ethyl]2-mesylaminothiazole], the figure is 0.02 mg/kg; as for `CS(=O)(=O)Nc1nc(CCCN2CCC(c3c[nH]c4ccccc34)CC2)cs1` [Compound G, 4-[3-[4-(3-Indolyl)piperidino]propyl]-2-mesylaminothiazole], 0.03 mg/kg; as for `CCC(=O)Nc1nc(CN2CCC(c3c[nH]c4ccccc34)CC2)cs1` [Compound D, 4-[4-(3-Indolyl)piperidinomethyl]-2-propionylaminothiazole], 0.92 mg/kg. `Nc1nc(CCCN2CCC(c3c[nH]c4ccccc34)CC2)cs1` [Compound F, 4-[3-[4-(3-Indolyl)piperidino]propyl]-2-aminothiazole]: the ED50 was determined as 0.3 mg/kg. As for `CS(=O)(=O)Nc1nc(CN2CCC(c3c[nH]c4ccccc34)CC2)cs1` [Compound B, 4-[4-(3-Indolyl)piperidinomethyl]-2-mesylaminothiazole], the figure is 0.086 mg/kg.
